The numbers were not newly measured in US20090252757A1, “METHODS AND COMPOSITIONS FOR INHIBITING HIV INFECTION” (IRM LLC, priority 2005, published 2009), which cites them from elsewhere.

Structures are written as SMILES.

The series deals with MLK3 (Homo sapiens, UniProt Q16584). Conditions: Roux et al., J. Biol. Chem. 277:49473-80, 2002.
Chain of MLK3 (Q16584 whole entry): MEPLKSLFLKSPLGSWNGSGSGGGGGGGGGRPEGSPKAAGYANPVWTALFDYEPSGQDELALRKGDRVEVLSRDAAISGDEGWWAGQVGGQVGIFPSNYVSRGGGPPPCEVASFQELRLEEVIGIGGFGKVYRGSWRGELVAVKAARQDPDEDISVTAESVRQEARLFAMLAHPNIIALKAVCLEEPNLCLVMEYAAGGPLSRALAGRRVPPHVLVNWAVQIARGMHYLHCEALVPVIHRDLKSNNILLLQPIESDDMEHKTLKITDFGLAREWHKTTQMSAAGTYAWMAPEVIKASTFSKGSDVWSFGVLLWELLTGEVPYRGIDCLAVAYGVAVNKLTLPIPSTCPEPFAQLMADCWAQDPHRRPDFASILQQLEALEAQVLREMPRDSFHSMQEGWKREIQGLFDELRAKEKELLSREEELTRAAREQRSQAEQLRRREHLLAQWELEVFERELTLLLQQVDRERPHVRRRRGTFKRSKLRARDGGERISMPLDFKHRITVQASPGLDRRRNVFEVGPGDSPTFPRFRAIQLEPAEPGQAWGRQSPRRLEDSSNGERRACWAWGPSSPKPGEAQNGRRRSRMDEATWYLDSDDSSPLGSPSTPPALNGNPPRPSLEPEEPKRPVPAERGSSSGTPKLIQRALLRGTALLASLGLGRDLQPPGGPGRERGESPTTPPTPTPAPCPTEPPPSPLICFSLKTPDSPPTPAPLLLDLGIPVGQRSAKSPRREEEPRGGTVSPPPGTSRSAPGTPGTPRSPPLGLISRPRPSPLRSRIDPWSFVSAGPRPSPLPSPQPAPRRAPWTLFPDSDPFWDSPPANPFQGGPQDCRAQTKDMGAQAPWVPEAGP

With `CCSCc1ccc2c(c1)c1c3c(c4c5cc(CSCC)ccc5n5c4c1n2[C@H]1C[C@](O)(C(=O)OC)[C@]5(C)O1)CNC3=O` [CEP1347], the “inhibition of MLK3 kinase activity” value was “inhibit the kinase activity of MLK3”.
